Drawing on ChEMBL document CHEMBL1152560, “Substituted 2-arylbenzothiazoles as kinase inhibitors: hit-to-lead optimization” (Bioorg Med Chem, 2009), this text covers residual activity for three molecules.

Assay [1] concerns the target Activin receptor type-1-like (Homo sapiens) (UniProt P37023). As to the kind of experiment: Residual activity of ACV-RL1 at 0.1 uM by microplate scintillation counting.
For assay [2], the target named is CDK4/Cyclin D3 (Homo sapiens) (UniProt P11802+P30281). Description: Residual activity of CDK4/Cyclin D3 at 1 uM by microplate scintillation counting. Format: protein-complex assay.
The target of assay [3] is Tyrosine-protein kinase ABL2 (Homo sapiens) (UniProt P42684). As to the kind of experiment: Residual activity of ABL2 at 0.1 uM by microplate scintillation counting.
Sequence of Tyrosine-protein kinase ABL2 (Homo sapiens) (P42684 whole entry): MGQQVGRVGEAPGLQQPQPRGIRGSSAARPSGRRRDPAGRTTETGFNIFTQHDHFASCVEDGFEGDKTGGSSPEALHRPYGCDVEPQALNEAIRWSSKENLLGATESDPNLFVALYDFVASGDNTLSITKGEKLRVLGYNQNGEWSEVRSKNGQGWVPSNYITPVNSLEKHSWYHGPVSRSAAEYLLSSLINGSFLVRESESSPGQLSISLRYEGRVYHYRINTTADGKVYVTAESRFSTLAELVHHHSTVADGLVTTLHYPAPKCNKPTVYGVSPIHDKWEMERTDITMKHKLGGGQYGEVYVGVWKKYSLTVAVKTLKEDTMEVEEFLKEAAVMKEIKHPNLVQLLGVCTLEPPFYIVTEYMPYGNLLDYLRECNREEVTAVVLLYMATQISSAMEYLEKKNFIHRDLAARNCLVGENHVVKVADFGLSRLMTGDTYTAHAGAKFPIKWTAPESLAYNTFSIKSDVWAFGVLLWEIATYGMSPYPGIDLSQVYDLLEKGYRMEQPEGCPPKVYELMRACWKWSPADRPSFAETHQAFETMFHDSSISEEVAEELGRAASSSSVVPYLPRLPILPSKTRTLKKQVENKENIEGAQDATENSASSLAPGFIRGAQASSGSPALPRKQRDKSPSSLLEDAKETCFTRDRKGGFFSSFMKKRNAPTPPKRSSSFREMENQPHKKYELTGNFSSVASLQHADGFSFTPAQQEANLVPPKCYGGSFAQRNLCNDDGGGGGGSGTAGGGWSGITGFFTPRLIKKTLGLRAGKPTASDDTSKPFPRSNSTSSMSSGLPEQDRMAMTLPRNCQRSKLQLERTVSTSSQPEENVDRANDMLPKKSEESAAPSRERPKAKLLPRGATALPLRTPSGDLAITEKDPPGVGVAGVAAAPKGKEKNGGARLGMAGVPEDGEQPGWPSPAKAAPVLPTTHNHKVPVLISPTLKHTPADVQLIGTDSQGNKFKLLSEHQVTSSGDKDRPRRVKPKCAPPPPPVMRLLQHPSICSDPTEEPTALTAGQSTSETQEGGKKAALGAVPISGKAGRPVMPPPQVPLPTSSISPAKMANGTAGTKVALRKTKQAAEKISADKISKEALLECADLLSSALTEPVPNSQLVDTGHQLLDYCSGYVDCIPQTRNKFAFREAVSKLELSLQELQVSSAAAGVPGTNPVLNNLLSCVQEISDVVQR
The target of assay [4] is Insulin receptor-related protein (Homo sapiens) (UniProt P14616). As to the kind of experiment: Residual activity of INSRR at 0.1 uM by microplate scintillation counting.
Assay [5] concerns Mast/stem cell growth factor receptor Kit (Homo sapiens), P10721 [T670I]. Description: Residual activity of KIT T670I mutant at 1 uM by microplate scintillation counting.
Assay [6] has as its target T1, Serine/threonine-protein kinase BRSK1 (Homo sapiens) (UniProt Q8TDC3).
T1 sequence (whole entry): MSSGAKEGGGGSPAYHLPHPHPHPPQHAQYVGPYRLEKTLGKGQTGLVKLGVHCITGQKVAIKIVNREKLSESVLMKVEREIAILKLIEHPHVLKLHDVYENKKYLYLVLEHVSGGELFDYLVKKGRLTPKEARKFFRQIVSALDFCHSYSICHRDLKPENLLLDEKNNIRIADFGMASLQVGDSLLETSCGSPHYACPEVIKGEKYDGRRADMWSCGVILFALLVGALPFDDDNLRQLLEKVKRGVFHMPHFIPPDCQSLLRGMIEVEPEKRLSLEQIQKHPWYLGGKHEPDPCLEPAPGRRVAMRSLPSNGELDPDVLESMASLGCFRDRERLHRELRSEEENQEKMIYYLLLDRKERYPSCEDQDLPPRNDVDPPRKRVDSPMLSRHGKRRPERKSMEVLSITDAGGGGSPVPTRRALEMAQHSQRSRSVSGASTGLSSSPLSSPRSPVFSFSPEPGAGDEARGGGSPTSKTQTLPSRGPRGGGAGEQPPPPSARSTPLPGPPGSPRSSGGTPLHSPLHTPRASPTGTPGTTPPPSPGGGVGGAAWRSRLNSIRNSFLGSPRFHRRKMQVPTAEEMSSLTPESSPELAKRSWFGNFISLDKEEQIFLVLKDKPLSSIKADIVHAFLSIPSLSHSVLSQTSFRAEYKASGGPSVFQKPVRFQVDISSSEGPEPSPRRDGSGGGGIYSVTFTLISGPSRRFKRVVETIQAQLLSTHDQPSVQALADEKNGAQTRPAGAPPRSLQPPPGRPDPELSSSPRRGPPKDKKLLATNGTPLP
As to the kind of experiment: Residual activity of BRSK1 at 0.1 uM by microplate scintillation counting.

In assay [7] the target is Ribosomal protein S6 kinase beta-2 (Homo sapiens) (UniProt Q9UBS0). As to the kind of experiment: Residual activity of S6Kbeta at 0.1 uM by microplate scintillation counting.
Sequence of Ribosomal protein S6 kinase beta-2 (Homo sapiens) (Q9UBS0 whole entry): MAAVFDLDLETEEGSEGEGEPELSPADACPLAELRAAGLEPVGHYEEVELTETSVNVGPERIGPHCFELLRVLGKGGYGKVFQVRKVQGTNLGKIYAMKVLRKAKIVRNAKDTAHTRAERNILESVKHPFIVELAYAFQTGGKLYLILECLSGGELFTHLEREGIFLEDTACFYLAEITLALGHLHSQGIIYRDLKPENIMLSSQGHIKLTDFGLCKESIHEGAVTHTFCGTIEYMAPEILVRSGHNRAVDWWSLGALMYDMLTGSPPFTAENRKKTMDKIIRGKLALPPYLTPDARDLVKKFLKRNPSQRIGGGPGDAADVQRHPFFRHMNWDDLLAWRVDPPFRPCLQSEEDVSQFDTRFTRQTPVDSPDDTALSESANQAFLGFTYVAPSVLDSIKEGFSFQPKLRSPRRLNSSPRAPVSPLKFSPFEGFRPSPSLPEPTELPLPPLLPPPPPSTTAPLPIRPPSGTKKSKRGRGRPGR
Assay [8] addresses Serine/threonine-protein kinase B-raf (Homo sapiens) (UniProt P15056). As to the kind of experiment: Residual activity of Wild type B-RAF at 1 uM by microplate scintillation counting.
In assay [9] the target is Ribosomal protein S6 kinase alpha-5 (Homo sapiens) (UniProt O75582). As to the kind of experiment: Residual activity of RPS6KA5 at 1 uM by microplate scintillation counting.
In assay [10] the target is T2, TGF-beta receptor type-1 (Homo sapiens) (UniProt P36897).
T2 sequence (whole entry): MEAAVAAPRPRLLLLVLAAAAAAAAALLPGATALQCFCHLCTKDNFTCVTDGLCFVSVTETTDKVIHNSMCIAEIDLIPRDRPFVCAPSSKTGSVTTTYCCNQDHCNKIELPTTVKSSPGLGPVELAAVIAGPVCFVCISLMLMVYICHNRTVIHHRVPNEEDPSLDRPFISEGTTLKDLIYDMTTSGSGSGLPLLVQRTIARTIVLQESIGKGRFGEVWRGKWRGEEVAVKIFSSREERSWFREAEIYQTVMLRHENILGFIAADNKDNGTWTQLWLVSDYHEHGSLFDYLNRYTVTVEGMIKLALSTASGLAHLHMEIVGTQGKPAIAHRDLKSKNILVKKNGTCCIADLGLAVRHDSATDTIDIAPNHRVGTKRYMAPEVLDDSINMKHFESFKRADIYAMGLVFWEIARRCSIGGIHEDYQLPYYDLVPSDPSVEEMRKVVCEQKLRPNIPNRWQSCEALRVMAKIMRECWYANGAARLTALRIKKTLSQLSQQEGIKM
Description: Residual activity of TGFB-R1 at 10 uM by microplate scintillation counting.

Assay [11] concerns the target Platelet-derived growth factor receptor alpha (Homo sapiens) (UniProt P16234). Description: Residual activity of PDGFRalpha at 10 uM by microplate scintillation counting.
For assay [12], the target named is Cyclin-dependent kinase 1/cyclin B1 (Homo sapiens) (UniProt P06493+P14635). Description: Residual activity of CDK1/CyclinB1 at 1 uM by microplate scintillation counting. Type of assay: protein-complex assay.
Sequence of Cyclin-dependent kinase 1/cyclin B1 (Homo sapiens) (P06493 whole entry, looked up): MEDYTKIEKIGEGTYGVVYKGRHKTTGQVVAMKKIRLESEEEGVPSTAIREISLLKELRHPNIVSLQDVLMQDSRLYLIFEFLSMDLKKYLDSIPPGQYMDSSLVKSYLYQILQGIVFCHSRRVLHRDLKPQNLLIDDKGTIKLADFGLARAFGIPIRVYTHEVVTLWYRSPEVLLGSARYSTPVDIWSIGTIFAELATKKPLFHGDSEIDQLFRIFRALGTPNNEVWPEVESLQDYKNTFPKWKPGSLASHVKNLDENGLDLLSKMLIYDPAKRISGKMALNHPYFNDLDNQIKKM
Sequence of Cyclin-dependent kinase 1/cyclin B1 (Homo sapiens) (P14635 whole entry, looked up): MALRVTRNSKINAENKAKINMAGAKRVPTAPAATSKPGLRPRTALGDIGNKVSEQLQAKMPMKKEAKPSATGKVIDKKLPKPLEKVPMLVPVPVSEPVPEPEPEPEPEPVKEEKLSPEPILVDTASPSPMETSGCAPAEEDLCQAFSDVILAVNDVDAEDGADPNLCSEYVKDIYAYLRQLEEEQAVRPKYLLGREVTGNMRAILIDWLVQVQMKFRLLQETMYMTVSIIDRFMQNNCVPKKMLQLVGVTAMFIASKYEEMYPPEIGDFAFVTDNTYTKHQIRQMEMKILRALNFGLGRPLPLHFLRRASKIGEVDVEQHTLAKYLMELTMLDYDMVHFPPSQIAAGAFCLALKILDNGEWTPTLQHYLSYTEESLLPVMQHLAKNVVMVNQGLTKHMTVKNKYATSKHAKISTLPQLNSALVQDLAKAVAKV
The target of assay [13] is CDK1/Cyclin A (Homo sapiens) (UniProt P06493+P20248). As to the kind of experiment: Residual activity of CDK1/Cyclin A at 10 uM by microplate scintillation counting. Type of assay: protein-complex assay.
Sequence of CDK1/Cyclin A (Homo sapiens) (P06493 whole entry, looked up): as the sequence (P06493 whole entry, looked up) above
Sequence of CDK1/Cyclin A (Homo sapiens) (P20248 whole entry, looked up): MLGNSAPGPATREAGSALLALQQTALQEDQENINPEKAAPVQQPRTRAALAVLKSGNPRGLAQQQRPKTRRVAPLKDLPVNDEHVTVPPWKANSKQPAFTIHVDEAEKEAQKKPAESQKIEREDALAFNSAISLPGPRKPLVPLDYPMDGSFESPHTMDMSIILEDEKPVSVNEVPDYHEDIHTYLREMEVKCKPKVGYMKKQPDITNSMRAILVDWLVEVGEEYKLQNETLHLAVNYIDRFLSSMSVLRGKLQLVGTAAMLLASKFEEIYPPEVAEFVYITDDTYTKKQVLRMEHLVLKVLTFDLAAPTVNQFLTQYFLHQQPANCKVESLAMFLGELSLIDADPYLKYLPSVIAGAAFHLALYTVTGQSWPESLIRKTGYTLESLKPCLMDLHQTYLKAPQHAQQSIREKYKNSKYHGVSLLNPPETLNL
The target in assay [14] is SRSF protein kinase 1 (Homo sapiens) (UniProt Q96SB4). As to the kind of experiment: Residual activity of SRPK1 at 1 uM by microplate scintillation counting.
Sequence of SRSF protein kinase 1 (Homo sapiens) (Q96SB4 whole entry): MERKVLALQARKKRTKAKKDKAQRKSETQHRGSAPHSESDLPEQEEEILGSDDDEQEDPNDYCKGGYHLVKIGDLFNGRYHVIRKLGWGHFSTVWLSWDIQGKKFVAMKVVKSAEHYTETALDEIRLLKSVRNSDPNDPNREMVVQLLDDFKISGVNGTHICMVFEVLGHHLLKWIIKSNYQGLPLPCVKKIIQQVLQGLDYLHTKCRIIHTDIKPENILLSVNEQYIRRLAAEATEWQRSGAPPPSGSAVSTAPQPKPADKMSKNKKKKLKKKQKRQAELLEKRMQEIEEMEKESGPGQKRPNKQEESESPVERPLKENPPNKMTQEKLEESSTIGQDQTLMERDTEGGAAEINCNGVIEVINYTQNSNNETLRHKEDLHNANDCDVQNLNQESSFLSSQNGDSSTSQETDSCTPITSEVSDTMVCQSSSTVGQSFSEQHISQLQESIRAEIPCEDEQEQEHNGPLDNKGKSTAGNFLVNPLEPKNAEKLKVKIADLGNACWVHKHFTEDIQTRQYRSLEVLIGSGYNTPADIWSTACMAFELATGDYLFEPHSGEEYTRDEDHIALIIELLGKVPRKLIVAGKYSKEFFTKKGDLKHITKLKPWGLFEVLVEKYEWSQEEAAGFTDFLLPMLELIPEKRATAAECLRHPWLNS

Sequence of Serine/threonine-protein kinase B-raf (Homo sapiens) (P15056 whole entry): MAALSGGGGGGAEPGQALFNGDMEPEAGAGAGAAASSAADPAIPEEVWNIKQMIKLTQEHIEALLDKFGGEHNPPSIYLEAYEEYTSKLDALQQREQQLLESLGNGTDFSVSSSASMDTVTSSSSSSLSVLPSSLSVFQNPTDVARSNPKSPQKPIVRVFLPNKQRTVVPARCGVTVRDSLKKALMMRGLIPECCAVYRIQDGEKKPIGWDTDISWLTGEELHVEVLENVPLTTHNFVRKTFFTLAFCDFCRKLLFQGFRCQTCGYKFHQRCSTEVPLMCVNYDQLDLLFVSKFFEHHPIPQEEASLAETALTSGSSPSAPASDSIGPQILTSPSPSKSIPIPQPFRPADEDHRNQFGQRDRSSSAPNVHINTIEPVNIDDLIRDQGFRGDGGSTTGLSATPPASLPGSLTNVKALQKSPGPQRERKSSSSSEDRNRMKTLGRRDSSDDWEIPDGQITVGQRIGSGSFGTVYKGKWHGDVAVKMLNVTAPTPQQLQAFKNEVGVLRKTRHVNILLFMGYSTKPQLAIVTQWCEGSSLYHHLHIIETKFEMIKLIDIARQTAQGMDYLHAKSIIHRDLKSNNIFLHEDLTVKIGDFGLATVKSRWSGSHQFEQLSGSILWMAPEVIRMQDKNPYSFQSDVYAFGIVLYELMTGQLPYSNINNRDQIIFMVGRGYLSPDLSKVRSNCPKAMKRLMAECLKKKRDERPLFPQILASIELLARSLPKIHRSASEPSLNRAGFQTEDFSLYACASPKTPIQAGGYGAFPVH

As usually defined, the residual activity is the signal under treatment as a percentage of the control signal. For the molecule `COc1cc2c(Oc3ccc(-c4nc5ccccc5s4)cc3F)ncnc2cc1OCCCN1CCN(C)CC1`, the residual activity in [1] worked out at 92%; in assay [2] it was 86%; in assay [3], 96%; in assay [4], 116%; in assay [5], 65%; in assay [6] it was 85%. Also, the residual activity was 55% in assay [7]; 83% in assay [8]; 71% in assay [9]; 94% in assay [10]; 30% in assay [11]; 99% in [12]. Besides, the residual activity in assay [13] amounted to 112%; in [14], 104%.

Take `COc1cc2c(Oc3ccc(-c4nc5ccccc5s4)cc3)ncnc2cc1OCCCN1CCN(C)CC1`: the residual activity worked out at 91% in assay [1]; 95% in assay [2]; 100% in assay [3]; 96% in assay [4]; 73% in [5]; 95% in assay [6]. Also, the residual activity in assay [7] worked out at 42%; in [8], 79%; in assay [9], 81%; in assay [10], 94%; in assay [11], 20%; in [12], 89%. Also, the residual activity in assay [13] is 129%; in assay [14] it was 103%.

For `COc1cc2c(Oc3ccc(-c4nc5ccccc5s4)cc3)ncnc2cc1OCCCN1CCCC1`, the residual activity in assay [1] stood at 96%; in [2] it was 105%; in assay [3], 116%; in [4], 97%; in assay [5], 73%; in [6], 94%. Moreover, the residual activity in assay [7] is 47%; in assay [8], 77%; in [9], 87%; in [10], 100%; in assay [11] it was 15%; in assay [12], 81%. Also, the results for the residual activity in assay [13] and in assay [14] were 117% and 100%, respectively.
